The results in this text go back to ChEMBL document CHEMBL1201862, “PubChem BioAssay data set” (2004).

The target in one assay is T1, Coagulation factor XII (Homo sapiens, UniProt P00748).
T1 sequence (P00748 whole entry): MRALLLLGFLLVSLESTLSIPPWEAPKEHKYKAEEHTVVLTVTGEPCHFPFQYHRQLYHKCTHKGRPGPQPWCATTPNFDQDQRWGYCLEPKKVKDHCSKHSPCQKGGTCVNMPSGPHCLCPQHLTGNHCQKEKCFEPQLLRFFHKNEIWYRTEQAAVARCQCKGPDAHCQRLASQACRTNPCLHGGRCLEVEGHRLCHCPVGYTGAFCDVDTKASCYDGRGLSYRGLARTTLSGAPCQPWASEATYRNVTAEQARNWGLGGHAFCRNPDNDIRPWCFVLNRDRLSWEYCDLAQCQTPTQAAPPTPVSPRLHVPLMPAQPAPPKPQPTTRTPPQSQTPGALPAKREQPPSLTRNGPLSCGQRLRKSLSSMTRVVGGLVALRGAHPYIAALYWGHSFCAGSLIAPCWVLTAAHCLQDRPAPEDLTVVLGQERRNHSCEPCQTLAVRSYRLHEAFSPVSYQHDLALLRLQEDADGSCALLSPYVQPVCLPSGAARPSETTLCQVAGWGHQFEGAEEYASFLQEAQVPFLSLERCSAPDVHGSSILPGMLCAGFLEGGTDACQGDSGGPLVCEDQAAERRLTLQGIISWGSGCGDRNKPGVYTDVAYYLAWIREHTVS
Description: Factor XIIa Dose Response Confirmation from Single Well HTS. [Related pubchem assays (depositor defined):AID701]. Format: functional.

A further assay deals with Ion channel NompC (Danio rerio, UniProt Q7T1G6). Description: Dose response cell-based high-throughput screening assay for agonists of the transient receptor potential channel N1 (TRPN1). [Related pubchem assays (depositor defined):AID1424, AID1448]. Format: functional.
The next assay relates to Vero. Description: cells. Type of assay: functional. The following applies: Chlorocebus sabaeus.
For assay [1], the target named is T2, Corticotropin-releasing factor receptor 2/Corticotropin-releasing factor-binding protein (Homo sapiens, UniProt P24387+Q13324).
T2 sequence (Q13324 whole entry): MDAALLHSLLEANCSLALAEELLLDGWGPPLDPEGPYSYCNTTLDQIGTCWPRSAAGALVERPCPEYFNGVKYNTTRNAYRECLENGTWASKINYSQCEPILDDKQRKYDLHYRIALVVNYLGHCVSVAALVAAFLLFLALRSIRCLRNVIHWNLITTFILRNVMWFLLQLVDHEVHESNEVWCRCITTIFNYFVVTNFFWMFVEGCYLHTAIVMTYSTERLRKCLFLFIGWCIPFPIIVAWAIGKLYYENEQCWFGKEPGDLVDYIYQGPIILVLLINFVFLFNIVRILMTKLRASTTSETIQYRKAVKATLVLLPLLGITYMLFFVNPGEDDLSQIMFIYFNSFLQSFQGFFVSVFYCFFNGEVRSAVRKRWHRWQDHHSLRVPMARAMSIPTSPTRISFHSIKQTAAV
T2 sequence (P24387 whole entry): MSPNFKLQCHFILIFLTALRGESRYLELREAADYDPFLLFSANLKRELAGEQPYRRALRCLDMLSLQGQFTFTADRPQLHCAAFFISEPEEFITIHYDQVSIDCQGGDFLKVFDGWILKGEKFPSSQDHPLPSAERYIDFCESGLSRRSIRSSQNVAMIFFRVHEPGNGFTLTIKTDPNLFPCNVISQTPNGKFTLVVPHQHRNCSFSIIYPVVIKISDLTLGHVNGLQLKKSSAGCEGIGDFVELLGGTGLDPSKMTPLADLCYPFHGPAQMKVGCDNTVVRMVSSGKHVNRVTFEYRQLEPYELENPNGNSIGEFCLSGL
Description: activators of CRF receptor 2 with binding protein – uHTS hits, confirmation (AID 602473). The following applies: read-out: EC50_Mean. Type of assay: functional.

A further assay deals with Mucolipin-3 (Homo sapiens, UniProt Q8TDD5). Description: Fluorescence counterscreen assay for […] agonists: dose response cell-based high-throughput screening assay to identify agonists of the transient receptor potential channel ML3 (TRPML3). [Related pubchem assays: 1424, 1448 ]. Type of assay: functional. (Counterscreens check selectivity or assay interference.)
The target in assay [2] is Sphingosine 1-phosphate receptor 4 (Homo sapiens, UniProt O95977). Description: Late-stage fluorescence dose response cell-based assay to identify agonists of the Sphingosine 1-Phosphate Receptor 4 (S1P4): purchased compounds EC50. [Related pubchem assays (depositor defined):AID1509, AID1523, AID1563, AID1686, AID1701, AID1801]. Type of assay: functional.
Assay [3] addresses Epstein-Barr nuclear antigen 1 (Epstein-Barr virus (strain B95-8) (HHV-4) (Human herpesvirus 4), UniProt P03211). Description: inhibition of EBV nuclear antigen 1 DNA binding – biochemical, fluorescence polarization, 1536-well, dose response (AID 2381).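 Note: fluorescence polarization of a Cy5 DNA probe bound by EBNA-1 protein.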 The arrangement: species or system human gammaherpesvirus 4. On the technique in general: In fluorescence polarisation assays a small probe gives low polarisation when free and higher when bound to something large.

Assay [4] concerns the target Lytic switch protein BZLF1 (Epstein-Barr virus (strain B95-8) (HHV-4) (Human herpesvirus 4), UniProt P03206). The assay can be described thus: inhibition of BZLF1 ZTA DNA binding – biochemical, fluorescence polarization, Epstein-Barr virus, 1536-well, counter-screen for EBNA-1 inhibitor project, dose response (AID 2377).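 Note: fluorescence polarization of Cy5-labelled ZRE DNA probe bound by purified Zta.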 The arrangement: species or system human gammaherpesvirus 4.

Assay [5] deals with T3, Intestinal-type alkaline phosphatase (Homo sapiens, UniProt P09923). The assay can be described thus: human intestinal alkaline phosphatase activators, dose response, biochemical, luminescence, uHTS hits (AID 463120). Format: functional.
Assay [6] concerns the target T3, Intestinal-type alkaline phosphatase. The assay can be described thus: Dose Response confirmation of uHTS hits from a small molecule inhibitors of human intestinal alkaline phosphatase via a luminescent assay. [Related pubchem assays (depositor defined):AID2544, AID2574]. Format: functional.
Assay [7] is described as follows: PhoP promoter GFP reporter reduction in Typhimurium – purified and synthesized compounds, set 2, PhoP regulon inhibitor project, dose response (AID 2831). Type of assay: functional.
For assay [8], the target named is Induced myeloid leukemia cell differentiation protein Mcl-1 (Homo sapiens, UniProt Q07820). Format: functional.
The target of assay [9] is T4, SUMO-activating enzyme (Homo sapiens, UniProt Q9UBT2). The assay can be described thus: blockers of UBC9-mediated SUMO conjugation – biochemical, AlphaScreen, SUMOylation inhibitor project, confirmation (AID 2018). Format: functional.
The target of assay [10] is T5, Voltage-gated N-type calcium channel alpha-1B subunit/Amyloid beta A4 precursor protein-binding family A member 1 (Homo sapiens, UniProt Q00975+Q02410). Format: protein assay.
Assay [11] addresses T4, SUMO-activating enzyme. The assay can be described thus: blockers of SAE1/SAE2–UBC9 SUMO transfer – biochemical, HTRF, uHTS, primary screen (AID 2006). Format: protein-complex assay. For orientation: In TR-FRET formats the signal depends on donor and acceptor labels being close together.
The target in assay [12] is T5, Voltage-gated N-type calcium channel alpha-1B subunit/Amyloid beta A4 precursor protein-binding family A member 1. Type of assay: protein assay. The source holds these as a separate data set.
In assay [13] the target is T6, RNA-binding protein pos-1 (Caenorhabditis elegans, UniProt G5EF15).
T6 sequence (G5EF15 whole entry): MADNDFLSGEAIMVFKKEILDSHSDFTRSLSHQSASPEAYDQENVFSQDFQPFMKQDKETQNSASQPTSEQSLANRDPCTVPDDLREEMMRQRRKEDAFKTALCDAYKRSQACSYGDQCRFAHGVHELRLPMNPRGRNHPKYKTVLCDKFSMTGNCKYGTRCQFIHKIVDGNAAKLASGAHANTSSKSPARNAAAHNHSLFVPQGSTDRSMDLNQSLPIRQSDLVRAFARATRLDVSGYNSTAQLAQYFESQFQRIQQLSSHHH
The assay can be described thus: disruptors of C. elegans POS-1 RNA interaction – biochemical, fluorescence polarization, dose response (AID 1964).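 Note: purified POS-1 fused to maltose binding protein made in E. coli; potency of compounds blocking POS-1 binding to fluorescent RNA.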

The target of assay [14] is T7, Zinc finger protein mex-5 (Caenorhabditis elegans, UniProt Q9XUB2).
T7 sequence (Q9XUB2 whole entry): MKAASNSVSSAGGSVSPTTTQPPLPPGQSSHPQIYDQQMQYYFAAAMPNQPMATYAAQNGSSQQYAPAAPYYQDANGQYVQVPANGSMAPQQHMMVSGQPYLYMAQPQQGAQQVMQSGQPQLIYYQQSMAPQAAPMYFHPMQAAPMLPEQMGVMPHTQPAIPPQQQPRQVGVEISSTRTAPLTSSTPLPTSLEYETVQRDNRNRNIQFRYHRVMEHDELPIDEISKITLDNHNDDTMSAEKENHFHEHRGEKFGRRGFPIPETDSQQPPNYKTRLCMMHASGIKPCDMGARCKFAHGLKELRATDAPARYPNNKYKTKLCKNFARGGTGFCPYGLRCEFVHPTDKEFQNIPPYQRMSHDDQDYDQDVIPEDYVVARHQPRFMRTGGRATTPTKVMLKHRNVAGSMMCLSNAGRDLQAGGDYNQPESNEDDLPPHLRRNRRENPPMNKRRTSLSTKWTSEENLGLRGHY
Description: potency of MEX-5 RNA-binding blockers – biochemical, C. elegans, fluorescence polarization, dose response (AID 1960).

Each structure is given as a SMILES string. Active and inactive are the calls of the source. A value given as a limit tells only on which side of the number the result lay.

T3 sequence (P09923 whole entry): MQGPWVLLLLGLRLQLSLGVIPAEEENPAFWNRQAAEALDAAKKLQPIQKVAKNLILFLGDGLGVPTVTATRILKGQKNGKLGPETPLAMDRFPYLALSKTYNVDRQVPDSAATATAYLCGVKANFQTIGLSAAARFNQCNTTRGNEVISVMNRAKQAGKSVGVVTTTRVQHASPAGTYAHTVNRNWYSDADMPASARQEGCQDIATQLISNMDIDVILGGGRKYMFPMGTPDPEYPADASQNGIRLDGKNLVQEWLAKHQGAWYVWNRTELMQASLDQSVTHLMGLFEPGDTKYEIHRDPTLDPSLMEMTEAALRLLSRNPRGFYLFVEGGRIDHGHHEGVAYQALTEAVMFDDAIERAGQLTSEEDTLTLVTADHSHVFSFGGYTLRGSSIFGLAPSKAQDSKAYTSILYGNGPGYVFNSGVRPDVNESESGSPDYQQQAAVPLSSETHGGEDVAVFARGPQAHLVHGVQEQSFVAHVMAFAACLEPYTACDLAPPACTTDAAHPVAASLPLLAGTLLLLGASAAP
T5 sequence (Q00975 whole entry): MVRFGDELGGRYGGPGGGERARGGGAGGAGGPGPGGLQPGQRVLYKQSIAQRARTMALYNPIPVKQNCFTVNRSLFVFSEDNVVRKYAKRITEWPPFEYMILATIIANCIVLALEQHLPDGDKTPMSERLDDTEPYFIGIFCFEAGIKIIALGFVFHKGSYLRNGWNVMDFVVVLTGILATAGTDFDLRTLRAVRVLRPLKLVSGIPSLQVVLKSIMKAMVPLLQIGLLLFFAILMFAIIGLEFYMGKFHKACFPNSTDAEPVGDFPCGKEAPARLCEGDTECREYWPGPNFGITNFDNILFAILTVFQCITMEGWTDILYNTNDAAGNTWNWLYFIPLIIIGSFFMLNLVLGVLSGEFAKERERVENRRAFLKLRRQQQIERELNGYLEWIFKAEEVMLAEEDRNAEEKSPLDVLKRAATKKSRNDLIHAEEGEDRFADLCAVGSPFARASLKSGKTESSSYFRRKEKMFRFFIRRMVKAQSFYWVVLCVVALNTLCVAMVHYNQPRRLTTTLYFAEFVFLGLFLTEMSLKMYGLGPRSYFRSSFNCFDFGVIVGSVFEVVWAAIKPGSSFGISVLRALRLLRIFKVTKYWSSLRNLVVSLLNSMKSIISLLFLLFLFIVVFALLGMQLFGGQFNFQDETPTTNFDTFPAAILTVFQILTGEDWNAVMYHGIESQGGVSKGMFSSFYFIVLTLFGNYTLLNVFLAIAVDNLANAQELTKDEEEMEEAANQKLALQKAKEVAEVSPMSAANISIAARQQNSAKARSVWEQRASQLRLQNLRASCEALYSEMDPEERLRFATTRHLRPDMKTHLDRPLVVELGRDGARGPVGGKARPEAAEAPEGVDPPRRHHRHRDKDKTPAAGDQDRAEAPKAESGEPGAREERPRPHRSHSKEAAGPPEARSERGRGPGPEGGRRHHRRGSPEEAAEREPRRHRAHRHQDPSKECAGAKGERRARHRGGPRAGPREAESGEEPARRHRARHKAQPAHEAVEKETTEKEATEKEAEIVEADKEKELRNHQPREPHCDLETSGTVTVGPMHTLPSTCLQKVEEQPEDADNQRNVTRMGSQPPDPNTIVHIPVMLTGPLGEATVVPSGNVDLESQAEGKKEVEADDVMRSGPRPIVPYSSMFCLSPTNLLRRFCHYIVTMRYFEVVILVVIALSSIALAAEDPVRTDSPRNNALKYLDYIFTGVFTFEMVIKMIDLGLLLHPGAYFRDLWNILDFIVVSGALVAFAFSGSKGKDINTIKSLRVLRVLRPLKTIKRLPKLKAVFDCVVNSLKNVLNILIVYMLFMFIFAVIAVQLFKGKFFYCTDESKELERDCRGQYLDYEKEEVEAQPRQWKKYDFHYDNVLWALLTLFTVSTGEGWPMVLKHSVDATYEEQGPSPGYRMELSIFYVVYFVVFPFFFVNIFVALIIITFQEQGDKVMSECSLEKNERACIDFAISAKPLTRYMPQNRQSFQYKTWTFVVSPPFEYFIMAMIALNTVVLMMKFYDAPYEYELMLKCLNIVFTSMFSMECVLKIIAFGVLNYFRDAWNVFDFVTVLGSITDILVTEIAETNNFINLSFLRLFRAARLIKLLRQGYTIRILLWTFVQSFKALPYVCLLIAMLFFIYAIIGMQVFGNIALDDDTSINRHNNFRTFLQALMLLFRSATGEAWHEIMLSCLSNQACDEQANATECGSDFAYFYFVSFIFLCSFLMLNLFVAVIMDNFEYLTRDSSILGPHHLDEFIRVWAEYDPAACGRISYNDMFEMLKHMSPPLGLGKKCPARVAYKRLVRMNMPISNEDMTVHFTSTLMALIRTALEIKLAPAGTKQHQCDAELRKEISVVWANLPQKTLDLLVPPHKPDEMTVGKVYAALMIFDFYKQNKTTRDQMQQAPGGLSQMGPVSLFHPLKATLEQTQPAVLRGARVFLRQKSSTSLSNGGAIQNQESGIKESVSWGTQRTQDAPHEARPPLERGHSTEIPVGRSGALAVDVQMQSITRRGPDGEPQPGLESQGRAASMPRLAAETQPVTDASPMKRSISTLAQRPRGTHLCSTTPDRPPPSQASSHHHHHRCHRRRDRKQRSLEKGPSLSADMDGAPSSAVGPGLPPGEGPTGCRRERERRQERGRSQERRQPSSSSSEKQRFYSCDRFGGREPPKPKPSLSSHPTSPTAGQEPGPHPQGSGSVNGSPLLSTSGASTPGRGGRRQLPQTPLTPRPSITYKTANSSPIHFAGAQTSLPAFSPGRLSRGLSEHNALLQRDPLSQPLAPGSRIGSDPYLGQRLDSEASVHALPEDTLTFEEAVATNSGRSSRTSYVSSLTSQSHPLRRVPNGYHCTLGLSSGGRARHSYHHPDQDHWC
T5 sequence (Q02410 whole entry): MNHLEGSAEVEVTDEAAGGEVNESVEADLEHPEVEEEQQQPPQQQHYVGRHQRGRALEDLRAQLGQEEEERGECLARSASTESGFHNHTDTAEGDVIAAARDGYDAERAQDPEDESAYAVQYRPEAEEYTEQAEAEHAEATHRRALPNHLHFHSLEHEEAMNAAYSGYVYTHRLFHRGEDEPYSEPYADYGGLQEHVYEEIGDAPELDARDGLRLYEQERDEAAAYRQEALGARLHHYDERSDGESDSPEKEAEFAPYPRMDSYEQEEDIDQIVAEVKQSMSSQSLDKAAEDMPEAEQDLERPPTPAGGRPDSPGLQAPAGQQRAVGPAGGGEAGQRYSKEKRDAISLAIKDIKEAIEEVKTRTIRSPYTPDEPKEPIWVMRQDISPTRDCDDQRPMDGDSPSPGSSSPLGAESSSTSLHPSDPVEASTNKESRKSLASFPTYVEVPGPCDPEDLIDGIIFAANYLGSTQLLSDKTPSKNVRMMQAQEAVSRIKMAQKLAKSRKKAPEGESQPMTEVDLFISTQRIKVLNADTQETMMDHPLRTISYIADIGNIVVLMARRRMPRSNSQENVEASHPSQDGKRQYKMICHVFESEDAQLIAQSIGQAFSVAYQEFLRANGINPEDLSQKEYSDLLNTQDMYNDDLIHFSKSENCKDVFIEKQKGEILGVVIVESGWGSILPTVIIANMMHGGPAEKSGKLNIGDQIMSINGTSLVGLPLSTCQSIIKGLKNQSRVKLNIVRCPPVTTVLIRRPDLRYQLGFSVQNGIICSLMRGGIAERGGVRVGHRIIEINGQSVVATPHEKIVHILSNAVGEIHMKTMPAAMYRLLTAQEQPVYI
T4 sequence (Q9UBE0 whole entry): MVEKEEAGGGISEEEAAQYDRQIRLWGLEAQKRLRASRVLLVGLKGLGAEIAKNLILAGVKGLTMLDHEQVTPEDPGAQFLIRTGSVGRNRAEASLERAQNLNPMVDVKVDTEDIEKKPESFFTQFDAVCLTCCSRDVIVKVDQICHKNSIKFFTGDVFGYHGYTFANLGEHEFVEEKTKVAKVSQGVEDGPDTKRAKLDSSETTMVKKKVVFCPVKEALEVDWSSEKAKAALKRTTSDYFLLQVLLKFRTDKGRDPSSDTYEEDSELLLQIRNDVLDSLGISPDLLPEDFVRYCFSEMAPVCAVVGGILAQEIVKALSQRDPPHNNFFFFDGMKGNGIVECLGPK
T4 sequence (Q9UBT2 whole entry): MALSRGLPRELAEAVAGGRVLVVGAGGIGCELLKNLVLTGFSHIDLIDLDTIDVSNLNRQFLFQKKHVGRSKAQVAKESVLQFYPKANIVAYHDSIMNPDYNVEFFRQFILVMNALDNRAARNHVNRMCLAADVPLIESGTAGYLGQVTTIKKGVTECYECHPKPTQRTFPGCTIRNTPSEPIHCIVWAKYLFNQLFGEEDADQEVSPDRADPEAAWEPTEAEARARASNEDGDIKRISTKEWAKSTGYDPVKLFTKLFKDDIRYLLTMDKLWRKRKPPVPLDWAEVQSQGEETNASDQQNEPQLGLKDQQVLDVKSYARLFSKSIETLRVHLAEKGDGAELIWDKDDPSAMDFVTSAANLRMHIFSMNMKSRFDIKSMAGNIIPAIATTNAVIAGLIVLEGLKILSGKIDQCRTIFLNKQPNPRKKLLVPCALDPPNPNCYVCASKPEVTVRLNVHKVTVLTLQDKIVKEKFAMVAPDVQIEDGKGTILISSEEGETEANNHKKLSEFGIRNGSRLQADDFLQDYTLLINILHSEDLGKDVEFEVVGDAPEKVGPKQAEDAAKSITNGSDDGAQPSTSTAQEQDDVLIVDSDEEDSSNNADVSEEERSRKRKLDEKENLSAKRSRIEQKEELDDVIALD
Sphingosine 1-phosphate receptor 4, sequence (O95977 whole entry): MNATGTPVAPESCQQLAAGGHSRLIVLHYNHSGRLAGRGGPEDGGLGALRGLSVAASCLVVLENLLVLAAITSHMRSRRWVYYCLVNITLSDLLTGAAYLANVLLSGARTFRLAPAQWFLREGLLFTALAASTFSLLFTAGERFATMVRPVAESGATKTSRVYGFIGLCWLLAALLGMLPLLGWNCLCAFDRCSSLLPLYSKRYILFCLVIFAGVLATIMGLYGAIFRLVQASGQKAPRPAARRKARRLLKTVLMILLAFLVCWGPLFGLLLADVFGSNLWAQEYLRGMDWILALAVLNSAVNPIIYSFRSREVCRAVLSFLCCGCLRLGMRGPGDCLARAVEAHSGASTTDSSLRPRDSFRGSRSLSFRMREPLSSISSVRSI

By IC50 is commonly meant the concentration that gives 50% inhibition. Consider `Cc1ccc(CNC(=O)C[S+]([O-])CC(=O)O)cc1` (stereo not drawn), for which the IC50 on Coagulation factor XII is > 50 µM (inactive).

The CC50 is the concentration that lowers cell viability or growth by half. For `Cc1ccc(S(=O)(=O)Nc2ccc(NC(=O)c3c(F)c(F)c(F)c(F)c3F)cc2)cc1`, the figures for the EC50 (at Ion channel NompC; in assay [1]; on Mucolipin-3) were > 29.9 µM (inactive), 5.66 µM (active) and > 29.9 µM (not active), respectively. Besides, the CC50 in the assay on Vero is 23 µM (active).

On to `Cc1nn(Cc2ccccc2)c(Cl)c1C(=O)OC(C)C(=O)Nc1ccc(F)cc1Cl` (stereo not drawn), for which the EC50 in assay [2] was > 50 µM (inactive). The half-maximal inhibitory concentration (IC50) in [3] is 5.89 µM (active); in assay [4] it was > 111 µM (not active).

Consider `CC1(C)C[C@@H](O)CC2(C1)C[C@]1(C)CC(O)[C@H]2C(C)(C)C1` (stereo partly drawn), for which the EC50 in assay [5] is > 100 µM (inactive). Besides, the IC50 in [6] is > 100 µM (inactive).

In the case of `O=C1C2=C(Nc3ccccc3SC2c2cccc(Cl)c2)c2ccccc21` (stereo not drawn), the IC50 in assay [7] is > 150 µM (active).

As for `COc1cc(OC)c2c(O)c3c(c(-c4c5c(c(O)c6c(OC)cc(OC)cc46)CO[C@@H](C)[C@H]5O)c2c1)[C@H](O)[C@H](C)OC3`, the IC50 is 2.51 µM (not active) in assay [8]; 6.03 µM (active) on SUMO-activating enzyme [9]; 4.27 µM (active) in assay [10]; 17.1 µM (active) at SUMO-activating enzyme [11]; 20.3 µM (active) in [12]. The EC50 in assay [13] and in [14] was > 300 µM (not active) in each case.
